Paper PMC4244111, “Structure of Putrescine Aminotransferase from Escherichia coli Provides Insights into the Substrate Specificity among Class III Aminotransferases” (PLoS ONE, 2014)

Molecular target: T1, YgjG (Escherichia coli, UniProt P42588)
T1 construct: gene patA; full-length, C-terminal His6 tag, expressed in E. coli B834(DE3); homodimer; seven N-terminal and one C-terminal residues not visible
Experiment: X-ray crystallography, […] Å
Assay type: binding
Conditions: crystal pH 7.5; covalent, Schiff base with Lys300; active site at dimer interface

T1 sequence (P42588 whole entry): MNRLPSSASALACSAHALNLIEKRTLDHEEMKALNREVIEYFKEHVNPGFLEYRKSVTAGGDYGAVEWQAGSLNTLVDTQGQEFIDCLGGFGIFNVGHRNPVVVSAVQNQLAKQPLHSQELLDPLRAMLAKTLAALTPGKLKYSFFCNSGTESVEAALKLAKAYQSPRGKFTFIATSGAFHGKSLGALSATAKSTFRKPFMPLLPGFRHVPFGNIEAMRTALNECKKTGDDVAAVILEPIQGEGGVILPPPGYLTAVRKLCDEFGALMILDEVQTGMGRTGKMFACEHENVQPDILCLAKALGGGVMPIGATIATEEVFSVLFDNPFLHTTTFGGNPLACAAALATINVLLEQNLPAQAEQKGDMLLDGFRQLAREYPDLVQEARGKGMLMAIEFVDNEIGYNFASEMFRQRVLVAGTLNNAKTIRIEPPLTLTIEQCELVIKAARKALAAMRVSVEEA

Cc1ncc(COP(=O)(O)O)c(C=O)c1O [pyridoxal-5′-phosphate]
X-ray crystallography, 2.3 Å: PLP is covalently linked to the strictly conserved lysine residue (Lys300) via a Schiff base linkage
